ChEMBL document CHEMBL5360614, “Quinoline Thiourea-Based Zinc Ionophores with Antibacterial Activity” (J Med Chem, 2023)
Active and inactive are the calls of the source. No cut-off for these calls is given here.

Tests used:
Staphylococcus aureus [1] = assay: Antibacterial activity against Staphylococcus aureus MTCC-96 assessed as reduction in bacterial growth incubated for 14 to 16 hrs in presence of 100 to 400 uM MgCl2 by microbroth dilution method; assay type: functional, organism-based; details: time 14-16 hrs
Staphylococcus aureus [2] = assay: In vivo antibacterial activity against Staphylococcus aureus MTCC-96 infected in Balb/c mouse assessed as uniform distribution of sinusoids in liver tissue at 156.5 microM/Kg, iv for 7 days by hematoxylin and eosin staining based microscopic analysis; assay type: functional, organism-based; details: time 7.0 day
Staphylococcus aureus [3] = assay: Antibacterial activity against Staphylococcus aureus MTCC-96 assessed as reduction in bacterial growth incubated for 14 to 16 hrs in presence of 400 uM ZnCl2 by microbroth dilution method; assay type: functional; details: time 14-16 hrs
Staphylococcus aureus [4] = assay: Antibacterial activity against Staphylococcus aureus MTCC-96 assessed as fold reduction in bacterial growth incubated for 14 to 16 hrs in presence of 400 uM ZnCl2 by microbroth dilution method; assay type: functional; details: time 14-16 hrs
Staphylococcus aureus [5] = assay: In vivo antibacterial activity against Staphylococcus aureus MTCC-96 infected in Balb/c mouse assessed as normal morphology of spleen tissue at 31.6 microM/Kg, iv for 7 days in presence of ZnCl2 by hematoxylin and eosin staining based microscopic analysis; assay type: functional, organism-based; details: time 7.0 day
Staphylococcus aureus [6] = assay: Disruption of membrane integrity in Staphylococcus aureus MTCC-96 assessed as change in cocci shape in presence of Zn2+ ion by FE-SEM analysis; assay type: functional, organism-based
Lipid bilayer [7] = assay: (§1) Induction of ionophore activity across EYPC:CHOL (8:2) large unilamellar vesicles assessed as transmembrane cation transport by measuring decrease in fluorescence intensity for HPTS dye preincubated for 3 mins followed by CsCl addition and mesured after 7.5 mins by HPTS dye based fluorescence spectrophotometric analysis; details: time 10.5 min
Staphylococcus aureus [8] = assay: In vivo antibacterial activity against Staphylococcus aureus MTCC-96 infected in Balb/c mouse assessed as uniform distribution of hepatic lobules in liver tissue at 156.5 microM/Kg, iv for 7 days by hematoxylin and eosin staining based microscopic analysis; assay type: functional, organism-based; details: time 7.0 day
Staphylococcus aureus [9] = assay: In vivo antibacterial activity against Staphylococcus aureus MTCC-96 infected in Balb/c mouse assessed as normal architecture of portal vein in liver tissue at 31.6 microM/Kg, iv for 7 days in presence of ZnCl2 by hematoxylin and eosin staining based microscopic analysis; assay type: functional, organism-based; details: time 7.0 day
Staphylococcus aureus [10] = assay: Antibacterial activity against Staphylococcus aureus MTCC-96 assessed as reduction in bacterial growth incubated for 14 to 16 hrs in presence of 100 to 400 uM CuCl2 by microbroth dilution method; assay type: functional, organism-based; details: time 14-16 hrs
Staphylococcus aureus [11] = assay: In vivo antibacterial activity against Staphylococcus aureus MTCC-96 infected in Balb/c mouse assessed as uniform distribution of sinusoids in liver tissue at 31.6 microM/Kg, iv for 7 days in presence of ZnCl2 by hematoxylin and eosin staining based microscopic analysis; assay type: functional, organism-based; details: time 7.0 day
Lipid bilayer [12] = assay: as §1, with “anion” for “cation”, “ZnBr2” for “CsCl”; details: filed as opener; time 10.5 min
Staphylococcus aureus [13] = assay: Antibacterial activity against Staphylococcus aureus MTCC-96 assessed as reduction in bacterial growth incubated for 14 to 16 hrs in presence of 100 to 400 uM Zn(NO3)2 by microbroth dilution method; assay type: functional, organism-based; details: time 14-16 hrs

FC(F)(F)c1cc(NC(=S)Nc2cccc3ccc(-n4cnc5ccccc54)nc23)cc(C(F)(F)F)c1 was tested, and the Activity (Staphylococcus aureus [1]) was “inactive”, the Activity (Staphylococcus aureus [2]) was “Active” and the MIC (Staphylococcus aureus [3]) was 0.47 µM. The “fold change (FC)” value (Staphylococcus aureus [4]) was 6.65, the Activity (Staphylococcus aureus [5]) was “Active” and the Activity (Staphylococcus aureus [6]) was “inactive”. For the same compound, the Activity (Lipid bilayer [7]) was “inactive”, the Activity (Staphylococcus aureus [8]) was “Active” and the Activity (Staphylococcus aureus [9]) was “Active”. For the same compound, the Activity (Staphylococcus aureus [10]) was “inactive”, the Activity (Staphylococcus aureus [11]) was “Active” and the Activity (Lipid bilayer [12]) was “Active”. For the same compound, the Activity (Staphylococcus aureus [13]) was “Active”.
